Measured values taken from BindingDB's records for PubMed 10604951 (University of Colorado, 2000).
pKi: −log10 of the molar value.

The compounds below were run against Glutamate receptor ionotropic, NMDA 1 (Rattus norvegicus, UniProt P35439).

pKi, < 5.00:
NC(=O)N1c2ccccc2C=Cc2ccccc21 [5H-dibenzo[b,f]azepine-5-carboxamide]
COC(=O)c1cc(NC(=O)N(c2ccccc2)c2ccccc2)c2c(Cl)cc(Cl)cc2n1 [DCUK-Ome]
O=C(O)c1cc(NC(=O)N(c2ccccc2)c2ccccc2)c2c(Cl)cc(Cl)cc2n1 [DCUKA]
